Here are results for three molecules from publication PMC7554696 (International Journal of Molecular Sciences, 2020).

Each structure is given as a SMILES string. Residues, ends and D or L forms follow the SMILES beside them. *: point of attachment. Doxorubicin(3'-N) = COc1cccc2c1C(=O)c1c(O)c3c(c(O)c1C2=O)C[C@@](O)(C(=O)CO)C[C@@H]3O[C@H]1C[C@H](N*)[C@H](O)[C@H](C)O1; Fmoc = O=C(OCC1c2ccccc2-c2ccccc21)*

Data set [1] relates to dsDNA (DNA, duplex) CGTACGCGTACGCGTACGCG/CGCGTACGCGTACGCGTACG
The data set is described as follows: UV-Vis absorbance titration (Benesi–Hildebrand, 480 nm). The following applies: 10 mM Tris-HCl pH 7.2, 25 °C; 18 µM compound, no added salt stated.

The test system is the same in data set [2]. The data set is described as follows: ITC (single set of identical sites). The following applies: 10 mM Tris-HCl pH 7.2, 25 °C.
For data set [3] the test system is unchanged. The data set is described as follows: fluorescence quenching titration (Lineweaver–Burk, ex 490 nm, em 594 nm). The following applies: 10 mM Tris-HCl pH 7.2, 25 °C; 1.94 µM compound; average of two experiments.
The test system of data set [4] is dsDNA (20 bp, 5′-CGTACGCGTACGCGTACGCG-3′ duplex). The data set is described as follows: UV-Vis spectrophotometric titration with dsDNA (Benesi–Hildebrand). The following applies: 10 mM Tris-HCl pH 7.2, 25 °C. It is filed as binding.
Data set [5] shares this test system. The data set is described as follows: Steady-state fluorescence quenching titration with dsDNA. It counts as binding. The following applies: 10 mM Tris-HCl pH 7.2, 25 °C.
Data set [6] has the same test system. The data set is described as follows: Isothermal titration calorimetry (ITC) with dsDNA. It counts as binding. The following applies: 10 mM Tris-HCl pH 7.2, 25 °C. (ITC needs no label: the signal is the heat of the interaction.)
For a further data set, the system named is dsDNA. The data set is described as follows: Time-resolved fluorescence lifetime measurement. It is filed as physicochemical. The following applies: λex 420 nm, λem 594 nm, 20 °C, ligand 5 µM, constant regardless of dsDNA concentration (0–0.25 µM).
Data set [7] relates to collagenase IV (containing MMP-2/-9). The data set is described as follows: Enzymatic cleavage of MMP-2/-9-cleavable octapeptide by collagenase IV (HPLC). Conditions: 37 °C, APMA-activated 1 mM collagenase IV in HBSS, HPLC read-out. It is filed as in vitro ADME. The procedure:
The MMP-2/-9-cleavable peptide was degraded by collagenase IV (containing MMP-2/-9) in a time-dependent manner. […] In order to investigate how fast the octapeptide cleaved, the aliquots were removed after 2, 8, and 12 h.
The MMP-2/-9-cleavable octapeptide Fmoc–Gly–Pro–Leu–Gly–Leu–Ala–Gly–Gly was evaluated by enzymatic digestion with the use of collagenase IV (containing MMP-2/-9). In the first step, 1 mL of HBSS was added to […] of collagenase IV (205 u/mg) and mixed to complete dissolution. Activation of collagenase IV was performed using 1 mM APMA in 0.15 M NaOH for 1.5 h at 37 °C [24, 43]. The octapeptide stock solution was added to activated 1 mM collagenase IV and incubated at 37 °C. The aliquots were removed and analyzed by HPLC, between 2 and 12 h. The HPLC Dionex Ultimate 3000 (Waltham, MA, USA) was equipped with a bioZen Intact XB-C8 column (3.6 μm, 2.1 × 150 mm; Phenomenex, Aschaffenburg, Germany). The flow rate was set at 0.5 mL/min with a mobile phase consisting of solvent A (0.1% TFA) and solvent B (100% ACN). The gradient was as follows: 0–5 min, 0% of solvent B; 5–8 min, 0–30% of solvent B. The hydrolysis product was detected by MALDI TOF/TOF 5800 mass spectrometry (AB Sciex, Darmstadt, Germany).

With `COc1cccc2c1C(=O)c1c(O)c3c(c(O)c1C2=O)C[C@@](O)(C(=O)CO)C[C@@H]3O[C@H]1C[C@H](NC(=O)CNC(=O)CNC(=O)[C@H](C)NC(=O)[C@@H](N)CC(C)C)[C@H](O)[C@H](C)O1` (H-LAGG-{Doxorubicin(3'-N)}), the KA in data set [1] is 540000 M⁻¹; in data set [3] it was 5.6e+06 M⁻¹. For the same molecule, the logKITC in data set [2] (0.470 mM compound into 0.005 mM dsDNA) was 4.24 (±0.09) log (unit not printed).
Consider `COc1cccc2c1C(=O)c1c(O)c3c(c(O)c1C2=O)C[C@@](O)(C(=O)CO)C[C@@H]3O[C@H]1C[C@H](N)[C@H](O)[C@H](C)O1` [DOX, Doxorubicin], for which the KA turned out to be 1.1e+06 M⁻¹ in data set [1] and 1.1e+07 M⁻¹ in data set [3]. The logKITC in data set [2] (0.174 mM compound into 0.002 mM dsDNA) was 6.03 (±0.04) log (unit not printed); in data set [6] (ITC, single set of identical binding sites model, SD in parentheses) it was 6.03 (±0.04). In data set [4] (UV-Vis absorbance at 480 nm, ligand 18 µM, dsDNA up to 1.90 µM), the “intrinsic association constant KA (ligand…dsDNA), Benesi–Hildebrand” value stood at 1.1e+06 M⁻¹. In addition, the “free energy of binding ΔG = −RTlnKA” value in data set [4] (from spectrophotometric KA) is -8.23 kcal/mol. Further, the “bimolecular quenching rate constant kq (Stern–Volmer)” value in data set [5] (fluorescence quenching by dsDNA, λex 490 nm, emission 594 nm, ligand 1.94 µM) was found to be 9.37e+15 M⁻¹ s⁻¹. Besides, the “number of binding sites n (Scatchard, slope of log[(F0−F)/F] vs log[Q])” value in data set [5] (fluorescence titration, ligands bound per dsDNA molecule) is recorded as “approximately 1.0”. The “molar ratio of complex (ligand to dsDNA) from ITC” value in data set [6] (standard deviation in parentheses) was 7.29 (±0.09). The ΔHITC in data set [6] (ITC, SD in parentheses) was −9.52 (±0.17) kcal/mol. Also, in data set [6] (ITC, calculated from ΔGITC = ΔHITC − TΔSITC), the TΔSITC was -1.3 kcal/mol. For the same molecule, the ΔGITC in data set [6] (ITC, ΔGITC = −RTlnKITC, SD in parentheses) is −8.26 (±0.05) kcal/mol. The “fluorescence lifetime τ0” value in the data set on dsDNA is listed as 1.057 ± 0.022 ns.
Regarding `CC(C)C[C@H](NC(=O)CNC(=O)[C@H](CC(C)C)NC(=O)[C@@H]1CCCN1C(=O)CNC(=O)OCC1c2ccccc2-c2ccccc21)C(=O)N[C@@H](C)C(=O)NCC(=O)NCC(=O)O` [Fmoc–Gly–Pro–Leu–Gly–Leu–Ala–Gly–Gly] (Fmoc-GPLGLAGG-OH), the “MMP-2/-9 cleaved product Fmoc–Gly–Pro–Leu–Gly detected (efficiency of enzymatic digestion)” value in data set [7] (2 h incubation) stood at 52.54%; in data set [7] (8 h incubation) it was 69.53%; in data set [7] (12 h incubation), 82.42%. In addition, the “substrate (octapeptide) observed after incubation with collagenase IV” value in data set [7] (12 h incubation) turned out to be 17.43%.
